The source of these data is patent US8765749B2, “1,6-disubstituted indole compounds as protein kinase inhibitors” (Korea Institute of Science and Technology, priority 2009, dated 2014).

The conditions of data set [1]: cited from earlier work.
The next data set deals with A375P cells. The experiment in a line: Inhibition activity against proliferation of A375P melanoma cells (MTT assay). As to conditions: Homo sapiens, read-out: Inhibition activity against proliferation of A375P cells (GI50, μM). On the technique in general: Tetrazolium assays rely on reduction of a dye to a coloured formazan, in cell work by metabolically active cells.
A further data set concerns SK-MEL28 cells. The data set is described as follows: Inhibition activity against proliferation of SK-MEL28 melanoma cells (MTT assay). To be noted: Homo sapiens, SK-MEL-28, read-out: Inhibition activity against proliferation of SK-MEL28 cells (GI50, μM).
A further data set deals with T1, B-Raf (V600E) (Homo sapiens, UniProt P15056, V600E).
T1 construct: purchased Cell Signaling #7663
T1 sequence (P15056 whole entry V600E): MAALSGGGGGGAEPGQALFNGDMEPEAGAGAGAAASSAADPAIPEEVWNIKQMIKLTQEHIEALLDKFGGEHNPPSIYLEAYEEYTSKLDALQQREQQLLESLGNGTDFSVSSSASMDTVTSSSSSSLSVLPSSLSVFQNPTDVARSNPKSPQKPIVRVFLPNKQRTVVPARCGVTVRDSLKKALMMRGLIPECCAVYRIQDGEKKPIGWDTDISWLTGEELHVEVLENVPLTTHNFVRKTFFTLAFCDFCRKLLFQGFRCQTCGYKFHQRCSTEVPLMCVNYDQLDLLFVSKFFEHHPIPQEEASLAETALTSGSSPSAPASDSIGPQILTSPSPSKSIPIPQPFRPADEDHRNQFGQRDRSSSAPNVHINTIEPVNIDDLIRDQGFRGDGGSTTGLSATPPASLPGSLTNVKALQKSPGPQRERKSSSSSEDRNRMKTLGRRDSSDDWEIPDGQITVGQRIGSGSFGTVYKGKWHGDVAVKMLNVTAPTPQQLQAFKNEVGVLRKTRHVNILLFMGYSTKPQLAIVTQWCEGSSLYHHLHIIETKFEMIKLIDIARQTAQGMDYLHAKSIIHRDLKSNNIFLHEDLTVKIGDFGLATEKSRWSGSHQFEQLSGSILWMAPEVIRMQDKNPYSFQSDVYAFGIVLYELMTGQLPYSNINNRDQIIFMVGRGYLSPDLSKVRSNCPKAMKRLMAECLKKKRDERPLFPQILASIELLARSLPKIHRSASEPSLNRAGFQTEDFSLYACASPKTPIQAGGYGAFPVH
The data set is described as follows: Measurement of B-Raf-V600E kinase activity (MEK1 (K97R) phosphorylation, [γ-32P] ATP). It is filed as biochemical. To be noted: read-out: B-Raf kinase inhibition activity (% inhibition at 1 μM). Here is the method:
(1) Activation of MEK1 (K97R) by B-Raf
Base reaction buffer (20 mM Hepes (pH 7.5), 10 mM MgCl2, 1 mM EGTA, 0.02% Brij35, 0.02 mg/mL BSA, 0.1 mM Na3VO, 2 mM DTT, 1% DMSO) was prepared. B-Raf (V600E) (Cell Signaling #7663) diluted to 30 nM was added at a final concentration of 10 nM, and MEK1 (K97R) (Upstate #14-737) diluted to 3 μM was added at a final concentration of 1 μM. The test compound was prepared at a concentration of 10 mM in dimethylsulfoxide (DMSO) and diluted to various concentrations. The final volume was adjusted to 20 μL and, after completely mixing, the mixture was allowed to react at room temperature for 30 minutes.
(2) Phosphorylation of MEK1 (K97R)
[γ-32P] ATP (100 μCi/container) diluted to 1/10 was added in 10 μL aliquots. After completely mixing, the mixture was allowed to react at room temperature for 2 hours. After placing P81 paper in a scintillation vial, spotting was performed using 30 μL of the reaction mixture. After washing 3 times with 0.75% phosphoric acid for 10 minutes and washing once with acetone for 10 minutes, 5 mL of scintillation cocktail was added to the scintillation vial holding the washed P81 paper. Signals were recorded using a scintillation counter.

Another data set has as its system A375 melanoma cells. To be noted: read-out: proliferation of A375 melanoma cells IC50; cited from earlier work.

Consider `CNC(=O)c1cc(Oc2ccc(NC(=O)Nc3ccc(Cl)c(C(F)(F)F)c3)cc2)ccn1` [sorafenib, Sorafenib], for which, in data set [1] (600 mg (twice a day)), the skin toxicity result is “grade 3 skin toxicity”. Besides, the “maximum allowed administration dose” value in data set [1] (clinical trial phase II, twice a day) is on record as 400 mg.

Turning to `Nc1cc(-n2ccc3ccc(-c4cccc(NC(=O)c5cc(N6CCOCC6)cc(C(F)(F)F)c5)c4)cc32)ncn1` [Example 7, N-(3-(1-(6-aminopyrimidin-4-yl)-1H-indol-6-yl)phenyl)-3-morpholino-5-(trifluoromethyl)benzamide], the GI50 in the data set with A375P cells and in the data set on SK-MEL28 cells was less than 10 µM each time.

By inhibition is commonly meant the percentage by which the read-out fell short of the control. Regarding `COc1ccccc1NC(=O)Nc1ccc(C)c(-c2ccc3ccn(-c4cc(N)ncn4)c3c2)c1` [Example 21, 1-(3-(1-(6-aminopyrimidin-4-yl)-1H-indol-6-yl)-4-methylphenyl)-3-(2-methoxyphenyl)urea], the GI50 with A375P cells and with SK-MEL28 cells was less than 10 µM each time. Also, the inhibition at 1 µM at B-Raf (V600E) is more than 50%.

Consider `COc1ccccc1NC(=O)Nc1cccc(-c2ccc3ccn(-c4cc(NC5CC5)ncn4)c3c2)c1` [Example 23, 1-(3-(1-(6-(cyclopropylamino)pyrimidin-4-yl)-1H-indol-6-yl)phenyl)-3-(2-methoxyphenyl)urea], for which the GI50 in the data set on A375P cells and with SK-MEL28 cells was less than 10 µM in each case.

For the compound `CC(C)(C#N)c1cccc(C(=O)Nc2cccc(-c3ccc4ccn(-c5cc(N)ncn5)c4c3)c2)c1` [Example 9, N-(3-(1-(6-aminopyrimidin-4-yl)-1H-indol-6-yl)phenyl)-3-(2-cyanopropan-2-yl)benzamide], the GI50 with A375P cells and with SK-MEL28 cells was less than 10 µM in each case.

`Nc1cc(-n2ccc3ccc(-c4cccc(NC(=O)c5ccc(Cl)c(C(F)(F)F)c5)c4)cc32)ncn1` [Example 6, N-(3-(1-(6-aminopyrimidin-4-yl)-1H-indol-6-yl)phenyl)-4-chloro-3-(trifluoromethyl)benzamide]: the GI50 in the data set on A375P cells and with SK-MEL28 cells was less than 10 µM each time.

Consider `CNc1cc(-n2ccc3ccc(-c4cccc(NC(=O)Nc5ccccc5OC)c4)cc32)ncn1` [Example 22, 1-(2-methoxyphenyl)-3-(3-(1-(6-(methylamino)pyrimidin-4-yl)-1H-indol-6-yl)phenyl)urea], for which the GI50 with A375P cells and with SK-MEL28 cells was less than 10 µM in each case. The inhibition at 1 µM on B-Raf (V600E) is more than 50%.

Consider `COc1ccccc1NC(=O)Nc1cccc(-c2ccc3ccn(-c4cc(NCCN5CCOCC5)ncn4)c3c2)c1` [Example 24, 1-(2-methoxyphenyl)-3-(3-(1-(6-(2-morpholinoethylamino)pyrimidin-4-yl)-1H-indol-6-yl)phenyl)urea], for which the GI50 in the data set with A375P cells and in the data set on SK-MEL28 cells was less than 10 µM each time.

Consider `COc1ccccc1NC(=O)Nc1cccc(-c2ccc3ccn(-c4ncnc5[nH]ccc45)c3c2)c1` [Example 36, 1-(3-(1-(7H-pyrrolo[2,3-d]pyrimidin-4-yl)-1H-indol-6-yl)phenyl)-3-(2-methoxyphenyl)urea], for which the GI50 in the data set with A375P cells and with SK-MEL28 cells was less than 10 µM in each case.

On to `Nc1cc(-n2ccc3ccc(-c4cccc(NC(=O)Nc5ccc(C(F)(F)F)c(Cl)c5)c4)cc32)ncn1` [Example 2, 1-(3-(1-(6-aminopyrimidin-4-yl)-1H-indol-6-yl)phenyl)-3-(3-chloro-4-(trifluoromethyl)phenyl)urea], for which the GI50 with A375P cells and in the data set with SK-MEL28 cells was less than 10 µM in each case.

Consider `COc1ccccc1NC(=O)Nc1cccc(-c2ccc3ccn(-c4ccnc(N)n4)c3c2)c1` [Example 25, 1-(3-(1-(2-aminopyrimidin-4-yl)-1H-indol-6-yl)phenyl)-3-(2-methoxyphenyl)urea], for which the GI50 in the data set on A375P cells and in the data set on SK-MEL28 cells was less than 10 µM throughout.

With `Nc1cc(-n2ccc3ccc(-c4cccc(NC(=O)NC5CCCCC5)c4)cc32)ncn1` [Example 5, 1-(3-(1-(6-aminopyrimidin-4-yl)-1H-indol-6-yl)phenyl)-3-cyclohexylurea], the GI50 in the data set on A375P cells and in the data set on SK-MEL28 cells was less than 10 µM in each case.

Turning to `CC(C)(C#N)c1cccc(C(=O)Nc2cccc(-c3ccc4ccn(-c5cc(NC(=O)C6CC6)ncn5)c4c3)c2)c1` [Example 33, 3-(2-cyanopropan-2-yl)-N-(3-(1-(6-(cyclopropanecarboxamido)pyrimidin-4-yl)-1H-indol-6-yl)phenyl)benzamide], the GI50 with A375P cells is less than 10 µM.

For `Nc1cc(-n2ccc3ccc(-c4cccc(NC(=O)c5cnn(-c6ccccc6)c5C(F)(F)F)c4)cc32)ncn1` [Example 17, N-(3-(1-(6-aminopyrimidin-4-yl)-1H-indol-6-yl)phenyl)-1-phenyl-5-(trifluoromethyl)-1H-pyrazol-4-carboxamide], the GI50 with A375P cells is less than 10 µM.

Regarding `Nc1cc(-n2ccc3ccc(-c4cccc(NC(=O)c5ccc(Br)s5)c4)cc32)ncn1` [Example 18, N-(3-(1-(6-aminopyrimidin-4-yl)-1H-indol-6-yl)phenyl)-5-bromothiophen-2-carboxamide], the GI50 in the data set on A375P cells was less than 10 µM.

On to `Cc1cc(C(=O)Nc2cccc(-c3ccc4ccn(-c5cc(N)ncn5)c4c3)c2)no1` [Example 13, N-(3-(1-(6-aminopyrimidin-4-yl)-1H-indol-6-yl)phenyl)-5-methylisoxazol-3-carboxamide], for which the GI50 in the data set on A375P cells and in the data set with SK-MEL28 cells was less than 10 µM in each case.

Regarding `CCCS(=O)(=O)Nc1ccc(F)c(C(=O)c2c[nH]c3ncc(Cl)cc23)c1F` [PLX4720], the IC50 with A375 melanoma cells is 0.5 µM.

Consider `Nc1cc(-n2ccc3ccc(-c4cccc(NC(=O)c5csc(-c6ccncc6)n5)c4)cc32)ncn1` [Example 16, N-(3-(1-(6-aminopyrimidin-4-yl)-1H-indol-6-yl)phenyl)-2-(pyridin-4-yl)thiazol-4-carboxamide], for which, in the data set with A375P cells, the GI50 was less than 10 µM.

On to `Cc1cn(-c2cc(C(=O)Nc3cccc(-c4ccc5ccn(-c6cc(N)ncn6)c5c4)c3)cc(C(F)(F)F)c2)cn1` [Example 8, N-(3-(1-(6-aminopyrimidin-4-yl)-1H-indol-6-yl)phenyl)-3-(4-methyl-1H-imidazol-1-yl)-5-(trifluoromethyl)benzamide], for which the GI50 in the data set on A375P cells and with SK-MEL28 cells was less than 10 µM throughout.

For the compound `COc1ccccc1NC(=O)Nc1cccc(-c2ccc3ccn(-c4cc(NC(=O)C5CC5)ncn4)c3c2)c1` [Example 26, N-(6-(6-(3-(3-(2-methoxyphenyl)ureido)phenyl)-1H-indol-1-yl)pyrimidin-4-yl)cyclopropanecarboxamide], the GI50 with A375P cells and with SK-MEL28 cells was less than 10 µM throughout. On B-Raf (V600E), the inhibition at 1 µM was more than 50%.

`O=C(Nc1cccc(-c2ccc3ccn(-c4cc(NC(=O)C5CC5)ncn4)c3c2)c1)Nc1ccc(Cl)c(Cl)c1` [Example 28, N-(6-(6-(3-(3-(3,4-dichlorophenyl)ureido)phenyl)-1H-indol-1-yl)pyrimidin-4-yl)cyclopropanecarboxamide]: the GI50 in the data set on A375P cells was less than 10 µM.

Take `Cc1cn(-c2cc(C(=O)Nc3cccc(-c4ccc5ccn(-c6cc(NC(=O)C7CC7)ncn6)c5c4)c3)cc(C(F)(F)F)c2)cn1` [Example 32, N-(3-(1-(6-(cyclopropanecarboxamido)pyrimidin-4-yl)-1H-indol-6-yl)phenyl)-3-(4-methyl-1H-imidazol-1-yl)-5-(trifluoromethyl)benzamide]: the GI50 with A375P cells was less than 10 µM.

As to `Nc1cc(-n2ccc3ccc(-c4cccc(NC(=O)c5cc(-c6ccc(Cl)cc6)on5)c4)cc32)ncn1` [Example 14, N-(3-(1-(6-aminopyrimidin-4-yl)-1H-indol-6-yl)phenyl)-5-(4-chlorophenyl)isoxazol-3-carboxamide], the GI50 in the data set with A375P cells was less than 10 µM.
